Reference: patent USRE48335E1, “Polymyxin derivatives as antimicrobial compounds” (priority 2014, dated 2020)
Converted amounts (≈) assume the structure as drawn. Positions of bridges follow the written chain, without caps; N, C: chain ends. Non-standard residues stand in square brackets, D forms with d. Residues, ends and D or L forms follow the SMILES beside them. *: point of attachment. X32 = Cc1ccc(C(=O)*)c(Cl)c1; X26 = Cc1ccc(CC(=O)*)cc1C; X31 = O=C(c1ccc(Cl)cc1F)*; Octanoyl = CCCCCCCC(=O)*; X42 = Cc1ccc(C(=O)*)cc1F; Dab = NCC[C@H](N)C(=O)O; Abu = CC[C@H](N)C(=O)O; Dap = NC[C@H](N)C(=O)O

Legend:
[1] = system: Acinetobacter baumannii
Summary of the method: (§1)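 Using polymyxin B sulphate as comparator control, the trifluoroacetate-salt lipopeptides were assayed in CAMHB by broth microdilution to CLSI M100-S18, and MICs recorded.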

[2] = system: Enterobacter cloacae
Summary of the method: as §1

[3] = system: Pseudomonas aeruginosa
Summary of the method: as §1

Compound: CC[C@@H]1NC(=O)[C@@H](CC(C)C)NC(=O)[C@H](CCN)NC(=O)[C@@H](NC(=O)[C@H](CN)NC(=O)[C@@H](NC(=O)[C@H](CCN)NC(=O)c2ccc(C)cc2Cl)[C@@H](C)O)CCNC(=O)[C@H]([C@@H](C)O)NC(=O)[C@H](CCN)NC(=O)[C@H](CCN)NC1=O [Compound 101] (X32-[Dab]T[Dap][Dab][Dab][dL][Abu][Dab][Dab]T; lactam 4-C)
- Minimum inhibitory concentration, Ab A ATCC 17978 [1]: 0.5 mg/L (≈ 0.439 µM)
- Minimum inhibitory concentration, Ab ATCC 19606 [1]: 0.5 mg/L (≈ 0.439 µM)
- Minimum inhibitory concentration, Ab FADDI-AB034 [1]: 1 mg/L (≈ 0.877 µM)
- Minimum inhibitory concentration, Ec FADDI-EC001 [2]: <0.125 mg/L
- Minimum inhibitory concentration, Ec FADDI-EC003 [2]: <0.125 mg/L
- Minimum inhibitory concentration, Ec FADDI-EC006 [2]: 0.25 mg/L (≈ 0.219 µM)
- Minimum inhibitory concentration, Pa ATCC 27853 [3]: 0.5 mg/L (≈ 0.439 µM)
- Minimum inhibitory concentration, Pa FADDI-PA022 [3]: 2 mg/L (≈ 1.75 µM)
- Minimum inhibitory concentration, Pa FADDI-PA025 [3]: 2 mg/L (≈ 1.75 µM)

Compound: CC[C@@H]1NC(=O)[C@@H](CC(C)C)NC(=O)[C@H](CCN)NC(=O)[C@@H](NC(=O)[C@H](CN)NC(=O)[C@@H](NC(=O)[C@H](CCN)NC(=O)c2ccc(C)c(F)c2)[C@@H](C)O)CCNC(=O)[C@H]([C@@H](C)O)NC(=O)[C@H](CCN)NC(=O)[C@H](CCN)NC1=O [Compound 102] (X42-[Dab]T[Dap][Dab][Dab][dL][Abu][Dab][Dab]T; lactam 4-C)
- Minimum inhibitory concentration, Ab A ATCC 17978 [1]: 1 mg/L (≈ 0.89 µM)
- Minimum inhibitory concentration, Ab ATCC 19606 [1]: 2 mg/L (≈ 1.78 µM)
- Minimum inhibitory concentration, Ab FADDI-AB034 [1]: 1 mg/L (≈ 0.89 µM)
- Minimum inhibitory concentration, Ec FADDI-EC001 [2]: 1 mg/L (≈ 0.89 µM)
- Minimum inhibitory concentration, Ec FADDI-EC003 [2]: 0.5 mg/L (≈ 0.445 µM)
- Minimum inhibitory concentration, Ec FADDI-EC006 [2]: 4 mg/L (≈ 3.56 µM)
- Minimum inhibitory concentration, Pa ATCC 27853 [3]: 0.5 mg/L (≈ 0.445 µM)
- Minimum inhibitory concentration, Pa FADDI-PA022 [3]: 0.5 mg/L (≈ 0.445 µM)
- Minimum inhibitory concentration, Pa FADDI-PA025 [3]: 2 mg/L (≈ 1.78 µM)

Compound: CC[C@@H]1NC(=O)[C@@H](CC(C)C)NC(=O)[C@H](CCN)NC(=O)[C@@H](NC(=O)[C@H](CN)NC(=O)[C@@H](NC(=O)[C@H](CCN)NC(=O)Cc2ccc(C)c(C)c2)[C@@H](C)O)CCNC(=O)[C@H]([C@@H](C)O)NC(=O)[C@H](CCN)NC(=O)[C@H](CCN)NC1=O [Compound 103] (X26-[Dab]T[Dap][Dab][Dab][dL][Abu][Dab][Dab]T; lactam 4-C)
- Minimum inhibitory concentration, Ab A ATCC 17978 [1]: 0.5 mg/L (≈ 0.441 µM)
- Minimum inhibitory concentration, Ab ATCC 19606 [1]: 0.5 mg/L (≈ 0.441 µM)
- Minimum inhibitory concentration, Ab FADDI-AB034 [1]: 0.5 mg/L (≈ 0.441 µM)
- Minimum inhibitory concentration, Ec FADDI-EC001 [2]: <0.125 mg/L
- Minimum inhibitory concentration, Ec FADDI-EC003 [2]: <0.125 mg/L
- Minimum inhibitory concentration, Ec FADDI-EC006 [2]: 0.5 mg/L (≈ 0.441 µM)
- Minimum inhibitory concentration, Pa ATCC 27853 [3]: 0.5 mg/L (≈ 0.441 µM)
- Minimum inhibitory concentration, Pa FADDI-PA022 [3]: 0.5 mg/L (≈ 0.441 µM)
- Minimum inhibitory concentration, Pa FADDI-PA025 [3]: 2 mg/L (≈ 1.76 µM)

Compound: CCCCCCCC(=O)N[C@@H](CCN)C(=O)N[C@H](C(=O)N[C@@H](CN)C(=O)N[C@H]1CCNC(=O)[C@H]([C@@H](C)O)NC(=O)[C@H](CCN)NC(=O)[C@H](CCN)NC(=O)[C@H](C)NC(=O)[C@@H](Cc2ccccc2)NC(=O)[C@H](CCN)NC1=O)[C@@H](C)O [Compound 128] (Octanoyl-[Dab]T[Dap][Dab][Dab][dF]A[Dab][Dab]T; lactam 4-C)
- Minimum inhibitory concentration, Ab A ATCC 17978 [1]: 0.25 mg/L (≈ 0.221 µM)
- Minimum inhibitory concentration, Ab ATCC 19606 [1]: 0.25 mg/L (≈ 0.221 µM)
- Minimum inhibitory concentration, Ab FADDI-AB034 [1]: 0.25 mg/L (≈ 0.221 µM)
- Minimum inhibitory concentration, Ec FADDI-EC001 [2]: <0.125 mg/L
- Minimum inhibitory concentration, Ec FADDI-EC003 [2]: 0.25 mg/L (≈ 0.221 µM)
- Minimum inhibitory concentration, Ec FADDI-EC006 [2]: 0.5 mg/L (≈ 0.441 µM)
- Minimum inhibitory concentration, Pa ATCC 27853 [3]: 0.5 mg/L (≈ 0.441 µM)
- Minimum inhibitory concentration, Pa FADDI-PA022 [3]: 1 mg/L (≈ 0.882 µM)
- Minimum inhibitory concentration, Pa FADDI-PA025 [3]: 4 mg/L (≈ 3.53 µM)

Compound: CC[C@@H]1NC(=O)[C@@H](CC(C)C)NC(=O)[C@H](CCN)NC(=O)[C@@H](NC(=O)[C@H](CN)NC(=O)[C@@H](NC(=O)[C@H](CCN)NC(=O)c2ccc(Cl)cc2F)[C@@H](C)O)CCNC(=O)[C@H]([C@@H](C)O)NC(=O)[C@H](CCN)NC(=O)[C@H](CCN)NC1=O [Compound 134] (X31-[Dab]T[Dap][Dab][Dab][dL][Abu][Dab][Dab]T; lactam 4-C)
- Minimum inhibitory concentration, Ab A ATCC 17978 [1]: 2 mg/L (≈ 1.75 µM)
- Minimum inhibitory concentration, Ab ATCC 19606 [1]: 2 mg/L (≈ 1.75 µM)
- Minimum inhibitory concentration, Ab FADDI-AB034 [1]: 0.5 mg/L (≈ 0.437 µM)
- Minimum inhibitory concentration, Ec FADDI-EC001 [2]: 0.25 mg/L (≈ 0.219 µM)
- Minimum inhibitory concentration, Ec FADDI-EC003 [2]: <0.125 mg/L
- Minimum inhibitory concentration, Ec FADDI-EC006 [2]: <0.125 mg/L
- Minimum inhibitory concentration, Pa ATCC 27853 [3]: 0.5 mg/L (≈ 0.437 µM)
- Minimum inhibitory concentration, Pa FADDI-PA022 [3]: 1 mg/L (≈ 0.874 µM)
- Minimum inhibitory concentration, Pa FADDI-PA025 [3]: 1 mg/L (≈ 0.874 µM)
